Calls of active or inactive are those of the source. The rule behind the calls is not given here.
Columns and labels:
[1] = biological target: Protein kinase C alpha type (Homo sapiens, UniProt P17252); test: Inhibition of recombinant PKC alpha (unknown origin) after 60 mins by z'-lyte kinase assay
[2] = tested on: SW-620; test: Growth inhibition of human SW620 cells at 5 to 20 uM after 96 hrs by CCK-8 assay; format: functional, cell-based
[3] = Antitumor activity against human QGY7401 cells xenografted in nude mouse assessed as reduction in body weight at 10 mg/kg, ip qd administered for 14 days measured on day 18 (reference value: 24.13 +/- 2.18 g); format: functional; details: route intraperitoneal
[4] = tested on: SMMC-7721; test: Cytotoxicity against human SMMC7721 cells after 96 hrs by CCK-8 assay; format: functional, cell-based; details: SMMC-7721, 96 h
[5] = biological target: T1, Aurora kinase B (Homo sapiens, UniProt Q96GD4); test: Inhibition of AURKB in human HepG2 cells assessed as reduction in histone H3 expression at 5 to 20 uM after 48 hrs by Western blotting analysis; format: cell-based
[6] = biological target: Vascular endothelial growth factor receptor 2 (Homo sapiens, UniProt P35968); test: Inhibition of recombinant KDR (unknown origin) after 60 mins by z'-lyte kinase assay
[7] = tested on: Mus musculus; test: Acute toxicity in mouse up to 1000 mg/kg, ip qd administered for 2 weeks; format: organism-based; set-up: dose 1000 mg/kg, route intraperitoneal; details: in vivo, 336 h
[8] = biological target: T1, Aurora kinase B; test: Binding affinity to AURKB (unknown origin)
[9] = biological target: AMP-activated protein kinase, AMPK; test: Inhibition of recombinant AMPK A1/B1/G1 (unknown origin) after 60 mins by z'-lyte kinase assay; format: protein-complex assay, Homo sapiens
[10] = biological target: Casein kinase I isoform alpha (Homo sapiens, UniProt P48729); test: Inhibition of recombinant CK1 alpha1 (unknown origin) after 60 mins by z'-lyte kinase assay
[11] = Cytotoxicity against human QGY7401 cells after 96 hrs by CCK-8 assay; format: functional, cell-based
[12] = tested on: Mus musculus; test: Toxicity in nude mouse xenografted with human QGY7401 cells at 10 to 20 mg/kg, ip qd administered for 14 days measured on day 18; format: organism-based; set-up: dose 10-20 mg/kg, route intraperitoneal; details: in vivo, 336 h
[13] = tested on: HeLa; test: Cytotoxicity against human HeLa cells after 96 hrs by CCK-8 assay; format: functional, cell-based
[14] = tested on: SW-620; test: Cytotoxicity against human SW620 cells after 96 hrs by CCK-8 assay; format: functional, cell-based; details: SW-620, 96 h
[15] = biological target: T1, Aurora kinase B; test: Inhibition of AURKB in human HepG cells assessed as reduction in histone H3 phosphorylation at 5 to 20 uM after 48 hrs by […] analysis; format: cell-based
[16] = tested on: SW-620; test: Inhibition of colony formation in human SW620 cells after 96 hrs by crystal violet staining-based assay; format: functional, cell-based
[17] = biological target: Aurora kinase A (Homo sapiens, UniProt O14965); test: Inhibition of recombinant AURKA (unknown origin) after 60 mins by z'-lyte kinase assay
[18] = tested on: SW480; test: Cytotoxicity against human SW480 cells after 96 hrs by CCK-8 assay; format: functional, cell-based; details: SW480, 96 h
[19] = biological target: Serine/threonine-protein kinase Nek1 (Homo sapiens, UniProt Q96PY6); test: Inhibition of recombinant NEK1 (unknown origin) after 60 mins by z'-lyte kinase assay
[20] = biological target: Platelet-derived growth factor receptor alpha (Homo sapiens, UniProt P16234); test: Inhibition of recombinant PDGFR alpha (unknown origin) after 60 mins by z'-lyte kinase assay
[21] = Antitumor activity against human QGY7401 cells xenografted in nude mouse assessed as reduction in body weight at 20 mg/kg, ip qd administered for 14 days measured on day 18 (reference value: 24.13 +/- 2.18 g); format: functional; details: route intraperitoneal
[22] = tested on: HeLa; test: Cell cycle arrest in human HeLa cells assessed as accumulation at G2/M phase at 20 uM after 48 hrs by flow cytometry relative to control; format: functional
[23] = tested on: HT-29; test: Cytotoxicity against human HT-29 cells after 96 hrs by CCK-8 assay; format: functional, cell-based; details: HT-29, 96 h
[24] = biological target: RAC-alpha serine/threonine-protein kinase (Homo sapiens, UniProt P31749); test: Inhibition of recombinant AKT1 (unknown origin) after 60 mins by z'-lyte kinase assay
[25] = tested on: HeLa; test: Growth inhibition of human HeLa cells at 5 to 20 uM after 96 hrs by CCK-8 assay; format: functional, cell-based
[26] = tested on: MCF7; test: Cytotoxicity against human MCF7 cells after 96 hrs by CCK-8 assay; format: functional, cell-based; details: MCF7, 96 h
[27] = biological target: T1, Aurora kinase B; test: Inhibition of AURKB in human SW620 cells assessed as reduction in histone H3 phosphorylation at 5 to 20 uM after 48 hrs by Western blotting analysis; format: cell-based; details: SW-620
[28] = biological target: Vascular endothelial growth factor receptor 3 (Homo sapiens, UniProt P35916); test: Inhibition of recombinant FLT4 (unknown origin) after 60 mins by z'-lyte kinase assay
[29] = biological target: Cyclin-dependent kinase 1/cyclin B1 (Homo sapiens, UniProt P06493); test: Inhibition of recombinant CDK1/cyclin B (unknown origin) after 60 mins by z'-lyte kinase assay; format: protein-complex assay
[30] = Cytotoxicity against human HCT116 cells after 96 hrs by CCK-8 assay; format: functional, cell-based; details: HCT-116, 96 h
[31] = biological target: Mitogen-activated protein kinase 1 (Homo sapiens, UniProt P28482); test: Inhibition of recombinant MAPK1 (unknown origin) after 60 mins by z'-lyte kinase assay
[32] = tested on: HepG2; test: Growth inhibition of human HepG2 cells at 5 to 20 uM after 96 hrs by CCK-8 assay; format: functional, cell-based
[33] = Cytotoxicity against human PANC1 cells after 96 hrs by CCK-8 assay; format: functional, cell-based; details: PANC-1, 96 h
[34] = biological target: T1, Aurora kinase B; test: Inhibition of AURKB in human HepG2 cells assessed as reduction in histone H3 phosphorylation at 20 uM after 48 hrs by Western blotting analysis; format: cell-based

T1 sequence (Q96GD4 whole entry): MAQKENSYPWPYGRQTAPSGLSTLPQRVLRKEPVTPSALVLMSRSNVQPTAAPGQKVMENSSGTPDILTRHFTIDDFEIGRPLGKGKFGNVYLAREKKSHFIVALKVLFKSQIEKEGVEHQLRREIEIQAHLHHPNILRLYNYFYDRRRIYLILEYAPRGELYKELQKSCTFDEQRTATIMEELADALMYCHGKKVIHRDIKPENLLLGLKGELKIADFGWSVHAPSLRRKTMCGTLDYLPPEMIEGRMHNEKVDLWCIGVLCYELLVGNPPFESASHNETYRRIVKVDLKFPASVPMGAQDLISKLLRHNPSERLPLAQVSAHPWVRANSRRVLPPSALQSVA
Mitogen-activated protein kinase 1, sequence (P28482 whole entry): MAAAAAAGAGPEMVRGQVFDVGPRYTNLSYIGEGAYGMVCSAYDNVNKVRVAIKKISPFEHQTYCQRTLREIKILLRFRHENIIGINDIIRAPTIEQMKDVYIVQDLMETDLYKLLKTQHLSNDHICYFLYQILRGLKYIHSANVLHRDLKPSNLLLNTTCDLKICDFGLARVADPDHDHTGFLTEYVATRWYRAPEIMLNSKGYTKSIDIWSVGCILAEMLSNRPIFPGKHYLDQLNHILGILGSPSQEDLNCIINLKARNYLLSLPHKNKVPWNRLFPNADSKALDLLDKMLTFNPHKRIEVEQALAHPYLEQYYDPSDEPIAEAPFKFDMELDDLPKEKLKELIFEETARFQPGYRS
Casein kinase I isoform alpha, sequence (P48729 whole entry, canonical isoform): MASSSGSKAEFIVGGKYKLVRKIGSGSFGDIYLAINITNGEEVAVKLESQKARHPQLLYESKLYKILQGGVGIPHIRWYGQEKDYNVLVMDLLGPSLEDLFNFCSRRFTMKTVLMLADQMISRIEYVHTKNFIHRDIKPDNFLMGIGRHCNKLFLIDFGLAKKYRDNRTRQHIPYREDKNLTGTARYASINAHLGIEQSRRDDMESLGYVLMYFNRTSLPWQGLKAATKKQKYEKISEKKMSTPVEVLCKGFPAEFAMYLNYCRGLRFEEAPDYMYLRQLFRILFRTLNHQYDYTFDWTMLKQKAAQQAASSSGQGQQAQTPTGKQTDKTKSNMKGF
Vascular endothelial growth factor receptor 3, sequence (P35916 whole entry): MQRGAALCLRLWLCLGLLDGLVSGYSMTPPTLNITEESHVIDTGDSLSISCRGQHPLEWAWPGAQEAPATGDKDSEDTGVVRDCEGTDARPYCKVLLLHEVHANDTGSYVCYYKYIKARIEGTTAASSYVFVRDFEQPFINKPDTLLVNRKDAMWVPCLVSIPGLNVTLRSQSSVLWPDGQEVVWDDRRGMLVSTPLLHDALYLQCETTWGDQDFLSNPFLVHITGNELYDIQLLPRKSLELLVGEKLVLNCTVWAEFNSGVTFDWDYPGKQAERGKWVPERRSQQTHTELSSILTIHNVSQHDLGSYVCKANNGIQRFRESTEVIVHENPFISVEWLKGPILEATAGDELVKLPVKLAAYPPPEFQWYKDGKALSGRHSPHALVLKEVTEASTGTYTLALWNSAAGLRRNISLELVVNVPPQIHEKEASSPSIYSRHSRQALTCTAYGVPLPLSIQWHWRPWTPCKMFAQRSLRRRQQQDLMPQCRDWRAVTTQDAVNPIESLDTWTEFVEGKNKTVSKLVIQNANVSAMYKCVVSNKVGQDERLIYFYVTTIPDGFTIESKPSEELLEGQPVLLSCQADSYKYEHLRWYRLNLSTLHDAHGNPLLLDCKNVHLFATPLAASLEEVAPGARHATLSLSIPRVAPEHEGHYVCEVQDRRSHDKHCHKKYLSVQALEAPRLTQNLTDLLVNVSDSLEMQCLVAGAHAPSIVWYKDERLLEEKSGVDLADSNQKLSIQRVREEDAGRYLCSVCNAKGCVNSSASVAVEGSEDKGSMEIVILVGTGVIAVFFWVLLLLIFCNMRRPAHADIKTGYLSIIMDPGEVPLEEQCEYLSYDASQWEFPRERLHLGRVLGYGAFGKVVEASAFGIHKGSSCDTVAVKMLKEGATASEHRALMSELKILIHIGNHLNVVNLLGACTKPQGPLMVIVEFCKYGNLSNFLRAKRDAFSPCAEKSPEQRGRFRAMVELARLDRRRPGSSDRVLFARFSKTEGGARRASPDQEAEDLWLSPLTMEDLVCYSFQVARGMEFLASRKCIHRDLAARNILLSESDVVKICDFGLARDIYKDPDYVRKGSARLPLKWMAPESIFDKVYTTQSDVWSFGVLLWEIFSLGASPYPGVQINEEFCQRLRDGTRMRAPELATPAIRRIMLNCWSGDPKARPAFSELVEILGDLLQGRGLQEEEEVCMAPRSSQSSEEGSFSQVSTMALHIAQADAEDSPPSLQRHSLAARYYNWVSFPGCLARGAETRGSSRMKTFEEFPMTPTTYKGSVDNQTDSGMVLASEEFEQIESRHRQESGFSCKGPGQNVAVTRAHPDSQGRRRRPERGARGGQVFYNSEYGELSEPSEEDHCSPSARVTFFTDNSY
RAC-alpha serine/threonine-protein kinase, sequence (P31749 whole entry): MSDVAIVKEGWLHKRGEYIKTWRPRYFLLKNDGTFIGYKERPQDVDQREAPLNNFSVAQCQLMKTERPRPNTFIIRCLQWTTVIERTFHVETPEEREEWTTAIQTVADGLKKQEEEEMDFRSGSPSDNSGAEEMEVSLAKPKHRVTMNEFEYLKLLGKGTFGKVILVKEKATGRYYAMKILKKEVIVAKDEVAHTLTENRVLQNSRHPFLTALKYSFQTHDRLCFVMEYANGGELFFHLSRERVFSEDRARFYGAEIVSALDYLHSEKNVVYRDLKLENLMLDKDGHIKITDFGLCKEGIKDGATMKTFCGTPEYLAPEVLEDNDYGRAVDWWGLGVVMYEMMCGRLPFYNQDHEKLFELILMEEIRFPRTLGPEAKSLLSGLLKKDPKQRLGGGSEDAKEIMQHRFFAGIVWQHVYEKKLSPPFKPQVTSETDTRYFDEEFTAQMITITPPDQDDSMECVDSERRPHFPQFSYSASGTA
Platelet-derived growth factor receptor alpha, sequence (P16234 whole entry): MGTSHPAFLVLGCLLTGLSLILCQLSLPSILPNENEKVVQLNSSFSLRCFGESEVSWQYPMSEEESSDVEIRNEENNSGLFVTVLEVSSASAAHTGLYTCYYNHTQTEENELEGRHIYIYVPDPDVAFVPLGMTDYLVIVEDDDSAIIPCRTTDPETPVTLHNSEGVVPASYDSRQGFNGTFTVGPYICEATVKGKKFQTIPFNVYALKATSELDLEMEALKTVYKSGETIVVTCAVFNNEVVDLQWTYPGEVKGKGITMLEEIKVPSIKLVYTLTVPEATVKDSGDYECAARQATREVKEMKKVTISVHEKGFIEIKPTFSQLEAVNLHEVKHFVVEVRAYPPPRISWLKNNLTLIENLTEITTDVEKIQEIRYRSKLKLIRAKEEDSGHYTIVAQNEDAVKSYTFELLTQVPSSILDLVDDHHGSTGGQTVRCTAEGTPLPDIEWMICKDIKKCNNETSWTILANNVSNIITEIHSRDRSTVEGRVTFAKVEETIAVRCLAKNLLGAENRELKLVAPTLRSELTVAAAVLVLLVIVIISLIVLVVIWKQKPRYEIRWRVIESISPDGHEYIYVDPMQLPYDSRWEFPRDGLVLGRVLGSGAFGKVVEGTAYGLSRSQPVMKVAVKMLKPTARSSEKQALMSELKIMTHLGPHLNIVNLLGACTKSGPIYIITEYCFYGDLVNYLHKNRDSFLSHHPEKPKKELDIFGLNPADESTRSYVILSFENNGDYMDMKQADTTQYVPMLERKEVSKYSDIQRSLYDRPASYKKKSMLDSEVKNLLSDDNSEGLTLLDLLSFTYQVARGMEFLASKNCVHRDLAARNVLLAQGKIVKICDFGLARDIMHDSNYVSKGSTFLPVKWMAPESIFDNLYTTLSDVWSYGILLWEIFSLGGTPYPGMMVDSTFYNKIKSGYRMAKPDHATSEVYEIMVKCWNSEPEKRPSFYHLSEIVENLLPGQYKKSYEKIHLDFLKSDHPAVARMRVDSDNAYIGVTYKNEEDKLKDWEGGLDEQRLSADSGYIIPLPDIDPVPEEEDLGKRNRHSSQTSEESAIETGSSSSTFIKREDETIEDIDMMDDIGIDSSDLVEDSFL
Cyclin-dependent kinase 1/cyclin B1, sequence (P06493 whole entry): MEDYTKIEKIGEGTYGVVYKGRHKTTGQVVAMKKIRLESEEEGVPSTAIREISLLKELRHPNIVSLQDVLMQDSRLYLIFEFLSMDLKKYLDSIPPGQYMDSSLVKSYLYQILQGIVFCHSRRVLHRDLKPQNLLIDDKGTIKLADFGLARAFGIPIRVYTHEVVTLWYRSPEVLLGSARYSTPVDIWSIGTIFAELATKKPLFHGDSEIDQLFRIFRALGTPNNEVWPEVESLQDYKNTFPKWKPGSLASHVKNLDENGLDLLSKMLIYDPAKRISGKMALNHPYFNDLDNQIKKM
Cyclin-dependent kinase 1/cyclin B1, sequence (P14635 whole entry, further chain): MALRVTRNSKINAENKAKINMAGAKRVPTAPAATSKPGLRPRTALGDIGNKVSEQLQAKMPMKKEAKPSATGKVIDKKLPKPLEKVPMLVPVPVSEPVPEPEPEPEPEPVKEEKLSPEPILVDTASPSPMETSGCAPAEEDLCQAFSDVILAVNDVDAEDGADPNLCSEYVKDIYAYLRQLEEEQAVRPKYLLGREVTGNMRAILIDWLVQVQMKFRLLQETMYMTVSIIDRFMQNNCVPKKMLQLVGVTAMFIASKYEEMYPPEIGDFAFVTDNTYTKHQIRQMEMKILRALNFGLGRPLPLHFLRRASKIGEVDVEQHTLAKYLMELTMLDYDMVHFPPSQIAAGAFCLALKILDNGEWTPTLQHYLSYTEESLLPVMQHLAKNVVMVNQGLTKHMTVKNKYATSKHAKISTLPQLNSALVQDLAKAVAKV

O=C1/C(=C\c2ccc(O)c(O)c2)Oc2ccccc21
IC50 [1]: 26.8 µM
growth inhibition (GI) [2]: Active
Activity [3]: 21.87 g
IC50 [4]: 20.3 µM
inhibition [5]: Active
IC50 [6]: 5.96 µM
Activity [7]: Non-toxic
Kd [8]: 3.06 µM
IC50 [9]: 19.5 µM
IC50 [10]: 78.8 µM
IC50 [11]: 19.8 µM
Activity [12]: Non-toxic
IC50 [13]: 13.4 µM
IC50 [14]: 3.9 µM
inhibition [15]: Active
inhibition [16]: Dose-dependent effect
IC50 [17]: 1340 nM
IC50 [18]: 50 µM
IC50 [19]: 11.5 µM
IC50 [20]: 4.04 µM
Activity [21]: 22.14 g
Ratio [22]: 1.3
IC50 [23]: 34.9 µM
IC50 [24]: 38.6 µM
growth inhibition (GI) [25]: Active
IC50 [26]: 16.2 µM
inhibition [27]: Active
IC50 [28]: 5.19 µM
IC50 [29]: 37.4 µM
IC50 [30]: 13.4 µM
IC50 [31]: 100 µM
growth inhibition (GI) [32]: Active
IC50 [33]: 36.5 µM
inhibition [34]: Active

Source: ChEMBL document CHEMBL3351909, “In vitro and in vivo characterization of a benzofuran derivative, a potential anticancer agent, as a novel Aurora B kinase inhibitor” (Eur J Med Chem, 2015)
